The melting point is the temperature, or range, at which the solid turns liquid. As usually defined, the IC50 is the point on the concentration scale where inhibition reaches its midpoint. A lower IC50 goes with greater potency in that assay.

Melting point and IC50 data for 14 compounds are collected here from patent publication US20040266826A1, “Thiophenylthiopyrane dioxides as mmp or tnf-alpha inhibitors” (priority 2001, published 2004).

The target in data set [1] is T1, human MMP-9 (Homo sapiens, UniProt P14780).
T1 construct: purchased Yagai, Japan
The experiment in a line: Inhibitory activity of human MMP-9 (commercial kit, degradation of FITC-labeled bovine type IV collagen). The following applies: incubation 4 hours at 42° C. The class given is biochemical. Here is the method: Inhibitory Activity of Human MMP-9
The inhibitory activity of test compounds against human MMP-9 were measured by using commercial kits (Yagai, Japan). Gelatinolytic activity was determined by monitoring the degradation of FITC-labeled bovine type IV collagen after incubation for 4 hours at 42° C. The amount of degraded collagen was estimated by measuring the fluorescence intensity at 495 nm (excitation) and 520 nm (emission).
Inhibitory activity of human MMP-9 as mentioned above.

Molecules are shown by their SMILES.

T1 sequence (P14780 94-707): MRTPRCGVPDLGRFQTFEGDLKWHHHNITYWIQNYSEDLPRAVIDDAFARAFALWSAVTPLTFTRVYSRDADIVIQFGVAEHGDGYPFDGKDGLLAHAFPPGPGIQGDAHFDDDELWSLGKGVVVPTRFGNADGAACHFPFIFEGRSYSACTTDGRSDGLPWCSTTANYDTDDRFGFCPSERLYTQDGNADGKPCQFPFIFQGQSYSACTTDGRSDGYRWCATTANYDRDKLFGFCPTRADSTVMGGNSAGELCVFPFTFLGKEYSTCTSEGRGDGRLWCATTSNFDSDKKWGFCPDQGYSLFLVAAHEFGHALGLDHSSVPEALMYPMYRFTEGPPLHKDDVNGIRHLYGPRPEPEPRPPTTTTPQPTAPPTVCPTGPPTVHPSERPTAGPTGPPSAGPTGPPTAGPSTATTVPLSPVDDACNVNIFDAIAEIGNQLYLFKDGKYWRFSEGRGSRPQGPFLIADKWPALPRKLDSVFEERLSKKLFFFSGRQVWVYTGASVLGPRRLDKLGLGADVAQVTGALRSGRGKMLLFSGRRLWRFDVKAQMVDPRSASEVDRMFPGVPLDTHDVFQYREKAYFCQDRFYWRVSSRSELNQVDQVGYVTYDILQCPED

Take `COc1ccc2cc(-c3ccc([C@@]4(CC(=O)O)CCCCS4(=O)=O)s3)sc2c1` [Example 52, {(2S)-2-[5-(6-Methoxybenzothiophen-2-yl)thiophen-2-yl]-1,1-dioxo-3,4,5,6-tetrahydro-2H-thiopyran-2-yl} acetic acid]: the melting point was 232 to 235 °C.
On to `O=C(O)C[C@]1(c2ccc(C#Cc3ccc(Cl)cc3)s2)CCCCS1(=O)=O` [Example 179, ((2S)-2-{5-[(4-Chlorophenyl)ethynyl]thiophen-2-yl)-1,1-dioxo-3,4,5,6-tetrahydro-2H-thiopyran-2-yl)acetic acid], for which the melting point fell in the range of 203 to 204 °C. Moreover, the IC50 in data set [1] was found to be 7.17 nM.
As to `CCOc1ccc2cc(-c3ccc([C@@]4(CC(=O)O)CCCCS4(=O)=O)s3)ccc2c1` [Example 48, {(2S)-1,1-Dioxo-2-[5-(6-ethoxynaphthalen-2-yl)thiophen-2-yl]-3,4,5,6-tetrahydro-2H-thiopyran-2-yl} acetic acid], the melting point lay in the range of 219 to 222 °C.
Same read-out and setting: as for `O=C(O)C[C@]1(c2ccc(-c3cc4cc(F)ccc4s3)s2)CCCCS1(=O)=O` [Example 53, {(2S)-2-[5-(5-Fluorobenzothiophen-2-yl)thiophen-2-yl]-1,1-dioxo-3,4,5,6-tetrahydro-2H-thiopyran-2-yl} acetic acid], the figure is 219 to 221 °C; as for `CC(C)Oc1ccc(-c2ccc([C@@]3(CC(=O)O)CCCCS3(=O)=O)s2)cc1` [Example 96, ((2S)-1,1-Dioxo-2-{5-[4-(1-methylethoxy)phenyl]-thiophen-2-yl}-3,4,5,6-tetrahydro-2H-thiopyran-2-yl) acetic acid], 184 to 185 °C.
The same measure, in the same setting: for `Cc1ccc(C#Cc2ccc([C@@]3(CC(=O)O)CCCCS3(=O)=O)s2)cc1` [Example 180, ((2S)-1,1-Dioxo-2-{5-[(4-methylphenyl)ethynyl]-thiophen-2-yl}-3,4,5,6-tetrahydro-2H-thiopyran-2-yl)acetic acid] the value was 172 to 173 °C; for `CCCC#Cc1ccc([C@@]2(CC(=O)O)CCCCS2(=O)=O)s1` [Example 178, ((2S)-1,1-Dioxo-2-(5-[1-pentynyl]thiophen-2-yl}-3,4,5,6-tetrahydro-2H-thiopyran-2-yl)acetic acid], 171 to 172 °C; for `Cc1ccc2sc(-c3ccc([C@@]4(CC(=O)O)CCCCS4(=O)=O)s3)cc2c1` [Example 50, {(2S)-2-[5-(5-Methylbenzothiophen-2-yl)thiophen-2-yl]-1,1-dioxo-3,4,5,6-tetrahydro-2H-thiopyran-2-yl} acetic acid], 209 to 213 °C.
Compound `O=C(O)C[C@]1(c2ccc(-c3cc4ccc(F)cc4s3)s2)CCCCS1(=O)=O` [Example 97, {(2S)-1,1-Dioxo-2-[5-(6-fluorobenzothiophen-2-yl)thiophen-2-yl]-3,4,5,6-tetrahydro-2H-thiopyran-2-yl}acetic acid] returned an IC50 in data set [1] of 1.37 nM.
Take `CNC(=O)c1ccc2cc(-c3ccc([C@@]4(CC(=O)O)CCCCS4(=O)=O)s3)ccc2c1` [Example 54, [(2S)-1,1-Dioxo-2-(5-{6-[methylcarbamoyl)naphthalen-2-yl}thiophen-2-yl)-3,4,5,6-tetrahydro-2H-thiopyran-2-yl]acetic acid]: the melting point fell in the range of 230 to 232 °C.
The compound `COc1ccc2sc(-c3ccc([C@@]4(CC(=O)O)CCCCS4(=O)=O)s3)cc2c1` [Example 51, {(2S)-2-[5-(5-Methoxybenzothiophen-2-yl)thiophen-2-yl]-1,1-dioxo-3,4,5,6-tetrahydro-2H-thiopyran-2-yl} acetic acid] gave a melting point of 215 to 218 °C. This compound gave an IC50 in data set [1] of 4.56 nM.
Take `O=C(O)C[C@]1(c2ccc(-c3ccc(-c4ccsc4)cc3)s2)CCCCS1(=O)=O` [Example 35, ((2S)-1,1-Dioxo-2-{5-[4-(thiophen-3-yl)phenyl]-thiophen-2-yl}-3,4,5,6-tetrahydro-2H-thiopyran-2-yl)acetic acid]: the IC50 in data set [1] is 2.77 nM.
On to `O=C(O)C[C@]1(c2ccc(-c3ccc(-c4cnco4)cc3)s2)CCCCS1(=O)=O` [Example 3, [(2S)-2-[5-[4-(5-Oxazolyl)phenyl]thiophen-2-yl]-1,1-dioxo-3,4,5,6-tetrahydro-2H-thiopyran-2-yl]acetic acid], for which 16 nM corresponded to half-maximal inhibition in data set [1] (IC50).
As to `O=C(O)C[C@]1(c2ccc(-c3ccc4cc(-c5cnco5)ccc4c3)s2)CCCCS1(=O)=O` [Example 43, ((2S)-1,1-Dioxo-2-{5-[6-(oxazol-5-yl)naphthalen-2-yl]thiophen-2-yl}-3,4,5,6-tetrahydro-2H-thiopyran-2-yl)acetic acid], the melting point fell in the range of 260 to 265 °C.
